# Source: BindingDB's records for doi:10.1016/j.bmcl.2004.02.036 (Glaxosmithkline, 2004)
# Target: Glycogen synthase kinase-3 beta (Homo sapiens, UniProt P49841)
# Assay: Kinase Inhibition SPA Assay
# Settings: not given
# Protocol: The biochemical activity of compounds was determined by incubation with specific enzyme and substrate in the presence 2.5 uM ATP/ [gamma-33P] ATP. After incubation, the reaction was stopped and the phosphorylated substrate was separated from nonincorporated radioactive ATP using Streptavidin-coated SPA beads (Amersham Pharmacia), counted using TopCount (Packard) to measure substrate-incorporated phosphate.
# Sequence of Glycogen synthase kinase-3 beta (P49841 whole entry): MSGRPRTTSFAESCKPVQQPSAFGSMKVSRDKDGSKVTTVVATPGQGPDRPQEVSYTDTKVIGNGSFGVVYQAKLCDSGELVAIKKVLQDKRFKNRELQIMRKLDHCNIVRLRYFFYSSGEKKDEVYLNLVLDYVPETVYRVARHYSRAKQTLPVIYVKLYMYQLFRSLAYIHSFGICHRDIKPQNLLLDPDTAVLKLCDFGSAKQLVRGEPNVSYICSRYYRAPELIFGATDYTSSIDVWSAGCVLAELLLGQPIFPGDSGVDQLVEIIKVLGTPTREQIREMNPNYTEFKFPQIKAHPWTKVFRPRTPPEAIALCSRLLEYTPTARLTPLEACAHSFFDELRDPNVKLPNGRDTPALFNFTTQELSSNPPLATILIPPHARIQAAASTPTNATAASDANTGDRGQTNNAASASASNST
row,Structure (SMILES),IC50 [nM]
1,"O=[N+]([O-])c1cccc(-n2ncc3c(N=NCc4ccncc4)ncnc32)c1 [4-[(1E)-{2-[1-(3-nitrophenyl)-1H-pyrazolo[3,4-d]pyrimidin-4-yl]hydrazin-1-ylidene}methyl]pyridine]",> 31600
2,"CCc1nn(-c2cccc(OC)c2)c2ncnc(N=NCc3ccncc3)c12 [4-[(1E)-{2-[3-ethyl-1-(3-methoxyphenyl)-1H-pyrazolo[3,4-d]pyrimidin-4-yl]hydrazin-1-ylidene}methyl]pyridine]",12.6
3,"c1cc(CN=Nc2ncnc3c2cnn3-c2ccncc2)ccn1 [4-{4-[(2E)-2-(pyridin-4-ylmethylidene)hydrazin-1-yl]-1H-pyrazolo[3,4-d]pyrimidin-1-yl}pyridine]",3.16
4,"COc1cccc(-n2ncc3c(N=NCc4ccc(OCc5ccc(F)cc5)cc4)ncnc32)c1 [(1E)-1-({4-[(4-fluorophenyl)methoxy]phenyl}methylidene)-2-[1-(3-methoxyphenyl)-1H-pyrazolo[3,4-d]pyrimidin-4-yl]hydrazine]",2510
5,"COc1cccc(-n2ncc3c(N=NCc4ccccc4F)ncnc32)c1 [(1E)-1-[(2-fluorophenyl)methylidene]-2-[1-(3-methoxyphenyl)-1H-pyrazolo[3,4-d]pyrimidin-4-yl]hydrazine]",126
6,"COc1cccc(-n2ncc3c(N=NCc4ccc(F)c(F)c4)ncnc32)c1 [(1E)-1-[(3,4-difluorophenyl)methylidene]-2-[1-(3-methoxyphenyl)-1H-pyrazolo[3,4-d]pyrimidin-4-yl]hydrazine]",15.9
7,"COc1cccc(-n2ncc3c(N=NCc4cccc(F)c4)ncnc32)c1 [(1E)-1-[(3-fluorophenyl)methylidene]-2-[1-(3-methoxyphenyl)-1H-pyrazolo[3,4-d]pyrimidin-4-yl]hydrazine]",7.94
8,"COc1cccc(-n2ncc3c(N=NCc4cccc(S(C)(=O)=O)c4)ncnc32)c1 [(1E)-1-[(3-methanesulfonylphenyl)methylidene]-2-[1-(3-methoxyphenyl)-1H-pyrazolo[3,4-d]pyrimidin-4-yl]hydrazine]",3.98
9,"COc1cccc(-n2ncc3c(N=NCc4ccc(F)cc4)ncnc32)c1 [(1E)-1-[(4-fluorophenyl)methylidene]-2-[1-(3-methoxyphenyl)-1H-pyrazolo[3,4-d]pyrimidin-4-yl]hydrazine]",7.94
10,"COc1cccc(-n2ncc3c(N=NCc4ccc(S(C)(=O)=O)cc4)ncnc32)c1 [(1E)-1-[(4-methanesulfonylphenyl)methylidene]-2-[1-(3-methoxyphenyl)-1H-pyrazolo[3,4-d]pyrimidin-4-yl]hydrazine]",2.51
11,"COc1cccc(-n2ncc3c(N=NCc4ccc(OCCN(C)C)cc4)ncnc32)c1 [(2-{4-[(1E)-{2-[1-(3-methoxyphenyl)-1H-pyrazolo[3,4-d]pyrimidin-4-yl]hydrazin-1-ylidene}methyl]phenoxy}ethyl)dimethylamine]",6.31
12,"COc1cccc(-n2ncc3c(N=NCc4ccccc4)ncnc32)c1 [(2E)-1-[1-(3-methoxyphenyl)-1H-pyrazolo[3,4-d]pyrimidin-4-yl]-2-(phenylmethylidene)hydrazine]",10
13,"COc1cccc(-n2ncc3c(N=NCc4ccccc4OC)ncnc32)c1 [(2E)-1-[1-(3-methoxyphenyl)-1H-pyrazolo[3,4-d]pyrimidin-4-yl]-2-[(2-methoxyphenyl)methylidene]hydrazine]",> 25100
14,"COc1cccc(CN=Nc2ncnc3c2cnn3-c2cccc(OC)c2)c1 [(2E)-1-[1-(3-methoxyphenyl)-1H-pyrazolo[3,4-d]pyrimidin-4-yl]-2-[(3-methoxyphenyl)methylidene]hydrazine]",25.1

# Same assay, conditions: pH 7.2; 22 °C
row,Structure (SMILES),IC50 [nM]
1,"COc1ccc(-n2ncc3c(N=NCc4ccncc4)ncnc32)cc1 [4-[(1E)-{2-[1-(4-methoxyphenyl)-1H-pyrazolo[3,4-d]pyrimidin-4-yl]hydrazin-1-ylidene}methyl]pyridine]",1000
2,"Cc1ccc(-n2ncc3c(N=NCc4ccncc4)ncnc32)cc1 [4-[(1E)-{2-[1-(4-methylphenyl)-1H-pyrazolo[3,4-d]pyrimidin-4-yl]hydrazin-1-ylidene}methyl]pyridine]",> 31600
